Tests used:
[1] = in vitro; conditions: human, CC50, uninfected A549 cells, CellTiter-Glo
[2] = tested on: Influenza strain A549 A/WSN/33 (H1N1); experiment: microbe, parasite or virus in culture; format: cell-based; conditions: Influenza A virus, A549, 20 h, A549 cells, influenza A/WSN/33 (H1N1), 20 hours incubation; read-out: A549_A(H1N1) EC50

| Compound | CC50 [1] [nM] | EC50 [2] [nM] |
| --- | --- | --- |
| Cc1ccccc1C1c2ccc(F)c(F)c2OC/C=C\CN2CN1n1ccc(=O)c(O)c1C2=O (single isomer, unassigned) [Compound 155B, (18*S,*Z)-3,4-difluoro-12-hydroxy-18-(o-tolyl)-6,9-dihydro-18H-10,17-methanobenzo[b]pyrido[1,2-f][1]oxa[5,6,9]triazacyclotridecine-11,13-dione] | > 100 | > 50 |
| CC[C@H]1/C=C\COc2cc(F)c(F)c3c2[C@H](c2ccccc2SC3)N2CN1C(=O)c1c(O)c(=O)ccn12 (single isomer, unassigned) [Compound 126AA, (13*S,21a*R,Z)-13-ethyl-24,25-difluoro-16-hydroxy-6,10,13,21a-tetrahydro-7,8-(epiprop[1]en[1]yl[3]ylidene)-14,21-methanobenzo[6,7]thiepino[4,5-c]pyrido[1,2-f][1]oxa[5,6,9]triazacyclotridecine-15,17-dione] | > 200 | > 100 |
| O=C1c2c(O)c(=O)ccn2N2CN1C/C=C\COc1cccnc1[C@H]2c1ccccc1 (single isomer, unassigned) [Compound 27A, (18*R,*Z)-12-hydroxy-18-phenyl-6,9-dihydro-18H-10,17-methanodipyrido[3,2-b:1′,2′-f][1]oxa[5,6,9]triazacyclotridecine-11,13-dione] | > 2000 | 94 |
| C[C@H]1/C=C/COc2ccccc2[C@H](c2ccccc2)N2CN1C(=O)c1c(O)c(=O)ccn12 (single isomer, unassigned) [Compound 29BB, (9*S, 18*S, E)-12-hydroxy-9-methyl-18-phenyl-6,9-dihydro-18H-10,17-methanobenzo[b]pyrido[1,2-f][1]oxa[5,6,9]triazacyclotridecine-11,13-dione] | > 2000 | 8 |
| O=C1c2c(O)c(=O)ccn2N2CN1C[C@H]1C[C@@H]1COc1ccccc1[C@@H]2c1ccccc1 (single isomer, unassigned) [Compound 80AA, (1a*S,8*S,17a*S)-14-hydroxy-8-phenyl-1a,2,17,17a-tetrahydro-1H,8H-9,16-methanobenzo[b]cyclopropa[k]pyrido[1,2-f][1]oxa[5,6,9]triazacyclotridecine-13,15-dione] | > 1000 | 167 |
| O=C1c2c(O)c(=O)ccn2N2CN1C1(/C=C/COc3cc(F)c(F)c4c3[C@@H]2c2ccccc2SC4)CCC1 (single isomer, unassigned) [Compound 159A, (17a′*R,*E)-24′,25′-difluoro-12′-hydroxy-2′,17a′-dihydro-6′H-spiro[cyclobutane-1,9′-[3,4](epiprop[1]en[1]yl[3]ylidene)[10,17]methanobenzo[6,7]thiepino[4,5-c]pyrido[1,2-f][1]oxa[5,6,9]triazacyclotridecine]-11′,13′-dione] | > 100 | > 50 |
| O=C1c2c(O)c(=O)ccn2N2CN1C/C=C\COc1ccccc1[C@@H]2c1ccccc1 [Compound 5B, (18S,Z)-12-hydroxy-18-phenyl-6,9-dihydro-18H-10,17-methanobenzo[b]pyrido[1,2-f][1]oxa[5,6,9]triazacyclotridecine-11,13-dione] | > 2000 | > 1000 |
| Cc1c(F)ccc2c1OC/C=C\CN1CN([C@@H]2c2ccccc2)n2ccc(=O)c(O)c2C1=O (single isomer, unassigned) [Compound 133A, (18*R,Z)-3-fluoro-12-hydroxy-4-methyl-18-phenyl-6,9-dihydro-18H-10,17-methanobenzo[b]pyrido[1,2-f][1]oxa[5,6,9]triazacyclotridecine-11,13-dione] | > 200 | 4.1 |
| CC(C)[C@@H]1/C=C/COc2c(F)cccc2[C@H](c2ccccc2)N2CN1C(=O)c1c(O)c(=O)ccn12 (single isomer, unassigned) [Compound 124BB, (9*R,18*S,*E)-4-fluoro-12-hydroxy-9-isopropyl-18-phenyl-6,9-dihydro-18H-10,17-methanobenzo[b]pyrido[1,2-f][1]oxa[5,6,9]triazacyclotridecine-11,13-dione] | > 200 | 5.3 |
| COC[C@H]1/C=C/COc2ccccc2[C@@H](c2ccccc2)N2CN1C(=O)c1c(O)c(=O)ccn12 (single isomer, unassigned) [Compound 150A, (9*R,18*R,*E)-12-hydroxy-9-(methoxymethyl)-18-phenyl-6,9-dihydro-18H-10,17-methanobenzo[b]pyrido[1,2-f][1]oxa[5,6,9]triazacyclotridecine-11,13-dione] | > 100 | 9 |
| C[C@H]1/C=C/COc2cc(F)c(F)c3c2[C@@H](c2ccccc2SC3)N2CN1C(=O)c1c(O)c(=O)ccn12 (single isomer, unassigned) [Compound 162B, (9*S,17a*S,*E)-24,25-difluoro-12-hydroxy-9-methyl-2,6,9,17a-tetrahydro-3,4-(epiprop[1]en[1]yl[3]ylidene)-10,17-methanobenzo[6,7]thiepino[4,5-c]pyrido[1,2-f][1]oxa[5,6,9]triazacyclotridecine-11,13-dione] | > 100 | 0.23 |
| CC[C@H]1/C=C/COc2c(ccc(F)c2F)[C@H](c2ccccc2)N2CN1C(=O)c1c(O)c(=O)ccn12 [Compound 101BA, (9S,18S,E)-9-ethyl-3,4-difluoro-12-hydroxy-18-phenyl-6,9-dihydro-18H-10,17-methanobenzo[b]pyrido[1,2-f][1]oxa[5,6,9]triazacyclotridecine-11,13-dione] | > 200 | > 100 |
| O=C1c2c(O)c(=O)ccn2N2CN1C/C=C/CCc1cc(F)c(F)cc1[C@H]2c1ccccn1 (single isomer, unassigned) [Compound 58B, (16*S,E)-13,14-difluoro-4-hydroxy-16-(pyridin-2-yl)-7,10,11,16-tetrahydro-6,17-methanobenzo[k]pyrido[1,2-b][1,2,5]triazacyclotridecine-3,5-dione] | > 2000 | > 1000 |
| C[C@H]1C/C=C/COc2c(F)cccc2[C@@H](c2ccccc2)N2CN1C(=O)c1c(O)c(=O)ccn12 (single isomer, unassigned) [Compound 100AA, (2*R,9*S,*E)-33-fluoro-15-hydroxy-9-methyl-2-phenyl-12,13,14,16-tetrahydro-11H-4-oxa-1(1,3)-pyrido[2,1-f][1,2,4]triazina-3(1,2)-benzenacyclononaphan-6-ene-14,16-dione] | > 100 | 1.7 |
| Cc1cccnc1[C@@H]1c2ccc(F)c(F)c2OC/C=C/C2(CCC2)N2CN1n1ccc(=O)c(O)c1C2=O (single isomer, unassigned) [Compound 171A, (18′*S,*E)-3′,4′-difluoro-12′-hydroxy-18′-(3-methylpyridin-2-yl)-6′H,18′H-spiro[cyclobutane-1,9′-[10,17]methanobenzo[b]pyrido[1,2-f][1]oxa[5,6,9]triazacyclotridecine]-11′,13′-dione] | > 100 | 1.3 |
| O=C1c2c(O)c(=O)ccn2N2CN1C/C=C\COc1c(F)cccc1[C@H]2c1ccccc1 (single isomer, unassigned) [Compound 61A, (18*R,Z)-4-fluoro-12-hydroxy-18-phenyl-6,9-dihydro-18H-10,17-methanobenzo[b]pyrido[1,2-f][1]oxa[5,6,9]triazacyclotridecine-11,13-dione] | > 2000 | 5 |
| CC[C@@H]1/C=C/COc2c(ccc(Cl)c2Cl)[C@H](c2ccccc2)N2CN1C(=O)c1c(O)c(=O)ccn12 (single isomer, unassigned) [Compound 121BA, (9*R,18*S,*E)-3,4-dichloro-9-ethyl-12-hydroxy-18-phenyl-6,9-dihydro-18H-10,17-methanobenzo[b]pyrido[1,2-f][1]oxa[5,6,9]triazacyclotridecine-11,13-dione] | > 200 | 2.8 |
| Cc1cccc2c1OC/C=C\CN1CN([C@H]2c2ccccc2)n2ccc(=O)c(O)c2C1=O (single isomer, unassigned) [Compound 110A, (18*S,Z)-12-hydroxy-4-methyl-18-phenyl-6,9-dihydro-18H-10,17-methanobenzo[b]pyrido[1,2-f][1]oxa[5,6,9]triazacyclotridecine-11,13-dione] | > 200 | 6.4 |
| O=C1c2c(O)c(=O)ccn2N2CN1C/C=C\CCc1ccccc1[C@H]2c1ccccc1 (single isomer, unassigned) [Compound 21A, (17*R,*Z)-4-hydroxy-16-phenyl-7,10,11,16-tetrahydro-6,17-methanobenzo[k]pyrido[1,2-b][1,2,5]triazacyclotridecine-3,5-dione] | > 1000 | 5 |
| CC[C@@H]1/C=C/COc2ccccc2[C@@H](c2ccccc2)N2CN1C(=O)c1c(O)c(=O)ccn12 [Compound 39BA, (9R,18R,E)-9-ethyl-12-hydroxy-18-phenyl-6,9-dihydro-18H-10,17-methanobenzo[b]pyrido[1,2-f][1]oxa[5,6,9]triazacyclotridecine-11,13-dione] | > 200 | 6 |
| O=C1c2c(O)c(=O)ccn2N2CN1C/C=C\COc1cc(F)ccc1[C@@H]2c1ccccn1 (single isomer, unassigned) [Compound 71A, (18*R,*Z)-3-fluoro-12-hydroxy-18-(pyridin-2-yl)-6,9-dihydro-18H-10,17-methanobenzo[b]pyrido[1,2-f][1]oxa[5,6,9]triazacyclotridecine-11,13-dione] | > 200 | 34 |
| O=C1c2c(O)c(=O)ccn2N2CN1C1(/C=C/COc3c(F)cccc3[C@@H]2c2ccccc2)CC1 (single isomer, unassigned) [Compound 95A, (18′*S,E)-4′-fluoro-12′-hydroxy-18′-phenyl-6′H,18′H-spiro[cyclopropane-1,9′-[10,17]methanobenzo[b]pyrido[1,2-f][1]oxa[5,6,9]triazacyclotridecine]-11′,13′-dione] | > 1000 | > 500 |
